pIC50: −log10 of the molar value. “Also recorded” adds a separate entry of the source.
What was measured:
[1] = system: α1-antitrypsin Z variant (ATZ); assay: Steady state levels of ATZ in HTO/Z cell line (immunoblot); activity of G2 analogs; type: cell-based, human; settings: for Activity: G2 and G2 analogs, positive activity if shown to have any activity, not quantified; for pIC50: TABLE 1, assay not given
Experimental: For experiments with G2 analogs, Tet-off inducible cell lines were cultured in absence of doxycycline for at least 12 days to ensure expression of […] or its variants. The cells were then sub-cultured into separate monolayers in fresh complete growth medium and incubated for 48 hours in the absence or presence of G2 analog. […] All compounds available commercially were purchased except for G2-22, which was synthesized with routine chemistry.
Cells were lysed in NP40 buffer and then separated into insoluble and soluble fractions according to a previously established technique. Samples were subjected to immunoblot analysis for AT and GAPDH. For immmunoblot analysis to detect AT or GAPDH, cells were lysed in 50 mM Tris-HCl, 150 mM NaCl, 1% NP-40, pH 8.0. Protein concentrations were determined by BCA protein assay (Pierce Biotechnology, Rockford, IL). […] The membranes were blocked in 5% milk and then incubated overnight at 4° C. with primary antibody for AT (1:1000, Diasorin), LC3 (1:2000, Sigma), p62 (1:1000, Cell signaling, Danvers, MA), ATG5 (1:1000, Cell signaling), mTOR substrate sampler (1:1000 for all antibodies, Cell signaling). Donkey anti-goat Ig (Jackson Labs, Bar Harbor, ME), goat anti-rabbit lg (1:50,000), or goat anti-mouse Ig (1:50,000) were used as secondary antibodies in TBST at RT, 1 hour. Blots were visualized with ECL or West Femto from Pierce. Membranes were re-probed with GAPDH (1:5000, Sigma) as loading control. Insoluble samples were stained with Gel Code Blue as loading control.

[2] = system: C. elegans model of ATD (sGFP::ATZ); assay: Quantification of ATZ accumulation in C. elegans model of ATD (Z worm); type: in vivo; settings: 24 h incubation, FIG. 9
Experimental: The C. elegans strain VK1882 (vkls1882 [nhx-2p::sGFP::ATZ; myo-2p::mCherry) was routinely cultured at 20° C. on nematode growth medium plates seeded with E. coli strain OP50. Quantitative analysis of ATZ accumulation was carried out by detection of fluorescence using the Thermofisher CellInsight CX-7 high content imager as previously described. L4 stage animals were placed into wells of 384-well plates (30 per well) containing G2 analogs or an equivalent volume of DMSO. Following incubation at 20° C. for 24 hours, sodium azide was added to a final concentration of […] to anesthetize the animals and then each well was imaged on the CX-7 high content imager for quantification.

PiZ mouse model of ATD = assay: PiZ mouse model of ATD, oral gavage; type: in vivo; settings: PiZ mouse
Experimental: The PiZ mouse model has been described previously (Hidvegi 2010 Science 329 (5988): 229-232). For experiments involving drug administration in mice in vivo, doses of 5-50 mg/kg/day for the G2 analog were given for 3 weeks, and then liver histological and biochemical characteristics were assessed exactly as previously described (Hidvegi 2005J Biol Chem 280 (47): 39002-39015). Each experimental group contained 4-6 four- to six-month old male mice randomly chosen from littermates. G2 analogs were delivered by oral gavage. Control mice were littermates given DMSO by gavage. The outcome was determined by evaluating 1) the hepatic ATZ load by immunoblotting with anti-AT, immunostaining with PAS/D; 2) hepatic fibrosis using Sirius Red staining; 3) autophagy by immunoblotting with anti-LC3 and anti-p62, and imaging for GFP+autophagosomes; 4) monitoring blood glucose levels by glucometer and blood insulin levels by ELISA Wide Range Assay (CrystalChem). For immunostaining, liver samples were fixed in 10% Formalin, followed by staining with PAS after diastase and Sirius Red using standard techniques. Quantitative evaluation of immunostaining and histochemical staining was carried out by a member of the team that was blinded to group allocation. Blood glucose and insulin levels were quantified as previously described (Wang 2019 PLOS One 14: e0209748).
For immunoblot analysis of proteins in liver, the liver was snap frozen in liquid nitrogen and stored at −80° C. Liver was homogenized in 50 mM Tris-HCl pH 8.0, 150 mM NaCl, 2 mM KCl, 2 mM MgCl2, 0.5% Triton X-100, 0.5% deoxycholic acid containing 0.1 mM […] and Complete protease inhibitor cocktail from Roche. Total protein concentration was measured by BCA assay (Pierce) and followed by western blotting as described previously.

[3] = system: striatal neurons from Huntington's patient GM 04198; assay: Cell death (SytoX assay) in striatal neurons from Huntington's patient; type: cell-based, human
Experimental: (§1) Striatal neurons from Huntington's patient GM 04198 and control 2171WT were prepared as previously described. Cells, at 24 days after induction, were incubated with G2 analog or an equivalent volume of DMSO for 14 days (drug/DMSO added with medium change every 4 days) and then cell death was determined by SytoX assay as previously described.

[4] = system: striatal neurons from control 2171WT; assay: Cell death (SytoX assay) in striatal neurons from control individual; type: cell-based, human; settings: doses of 5 and 10 μM; data not shown
Experimental: as §1

[5] = system: HTT inclusion bodies (IBs) in HD-MSNs; assay: HTT inclusion bodies / mHTT aggregation in HD-MSNs; type: cell-based, human; settings: HD-MSNs, compared to the inactive form, FIG. 13
Experimental: Adult dermal fibroblasts from symptomatic HD patients (Coriell NINDS and NIGMS Repositories: ND33947, ND30013, GM02173, GM04230, GM04198, GM02147), presymptomatic HD patients (GM04717, GM04861, GM04855, GM04831, GM04857, GM04829), and healthy controls (GM02171) were acquired from the Coriell Institute for Medical Research. The lentiviral cocktail of rtTA, pTight-9-124-BclxL, CTIP2, MYT1L, DLX1, and DLX2 was added to human fibroblasts for 16 h, then cells were washed and fed with fibroblasts media containing 1 μg/mL doxycycline (DOX). Briefly, transduced fibroblasts were maintained in fibroblasts media for two days with doxycycline before selection with Puromycin ([…]) on day 3, then were plated onto poly-ornithine, fibronectin, and laminin-coated coverslips on day 5. Cells were subsequently maintained in NeurobasalA (Gibco) media containing B-27 plus supplement and GlutaMAX supplemented with valproic acid (1 mM), dibutyryl cAMP ([…]), BDNF (10 ng/ml), NT-3 (10 ng/ml), and RA ([…]) until day 13. […]
Reprogramming cells were fixed with 4% paraformaldehyde (Electron Microscopy Sciences, #15710) for 20 min at room temperature (RT), and then permeabilized with 0.2% Triton X-100 for 10 min at RT. […] Images were captured using a Leica SP5X white light laser confocal system with Leica Application Suite (LAS) Advanced Fluorescence 2.7.3.9723.

Compound | Activity [1] | further results
Cn1ccc2cc(Cl)ccc2c1=O [G2-19, 6-chloro-2-methylisoquinolin-1(2H)-one] | Active (Highly Active) | effect on cellular ATZ levels ([1]; 48 hrs incubation, immunoblot, FIG. 8 / FIG. 14): reduces ATZ levels in a dose-dependent manner; also recorded: more potent than G2-3; reduction of ATZ levels ([1]; dose of 5 μM, 48 hrs, FIG. 8): 60%; effect on ATZ levels in intestinal cells of the ATZ worm ([2]; GFP/RFP fluorescence): dose-dependent decrease in ATZ levels; also recorded: not as potent as positive control prochlorperazine (PCP); reduction in ATZ levels (fluorescence) ([2]; at 40 µM): ~50%; hepatic ATZ load (PiZ mouse model of ATD): reduced hepatic ATZ load; insulin secretion (PiZ mouse model of ATD): without affecting insulin secretion; hepatic / liver fibrosis (Sirius Red staining) (PiZ mouse model of ATD; G2-19: 3 weeks of treatment vs placebo): marked and statistically significant decrease; cell death (percent SYTOX positive cells) ([3]; FIG. 11, dose-dependent between 0.5 and 10 μM, 14 days): reduces cell death; neuronal death (percent SYTOX positive cells) ([3]; second experiment, FIG. 12, doses of 5 and 10 μM): reduced neuronal death; neuronal death (percent SYTOX positive cells) [4]: no effect; HTT inclusion body (IB) [5]: lowers HTT inclusion body (IB)
O=c1ccc2c(-c3ccccc3)cc(Cl)cc2[nH]1 [G2-196, 7-chloro-5-phenylquinolin-2(1H)-one] | Active | pIC50 [1]: 5.00 to 6.00
Cn1ccc2cc(N3CC4(COC4)C3)ccc2c1=O [G2-46, 2-methyl-6-(2-oxa-6-azaspiro[3.3]heptan-6-yl)isoquinolin-1(2H)-one] | Inactive | 
Cn1cnc2cc(Cl)ccc2c1=O [G2-27, 7-chloro-3-methylquinazolin-4(3H)-one] | Inactive | 
CNC(=O)c1cc(Cl)ccc1OC1CC1 [G2-12, 5-chloro-2-cyclopropoxy-N-methylbenzamide] | Active | 
COc1ccc2c(=O)n(C)ccc2c1 [G2-30, 6-methoxy-2-methylisoquinolin-1(2H)-one] | Active | 
Cn1ccc2cc(-c3ccc(Cl)cc3)ccc2c1=O [G2-63, 6-(4-chlorophenyl)-2-methylisoquinolin-1(2H)-one] | Inactive | 
CCn1ccc2cc(Cl)ccc2c1=O [G2-52, 6-chloro-2-ethylisoquinolin-1(2H)-one] | Inactive | 
O=c1ccc2ccc(Cl)cc2[nH]1 [G2-69, 7-chloroquinolin-2(1H)-one] | Active (Most Highly Active) | pIC50 [1]: 6.00 to 7.00
O=c1ccc2c(Cl)cc(-c3ccccc3)cc2[nH]1 [G2-233, 5-chloro-7-phenylquinolin-2(1H)-one] | Active | pIC50 [1]: 5.00 to 6.00
CNC(=O)c1cccc(Cl)c1OC [G2-40, 3-chloro-2-methoxy-N-methylbenzamide] | Inactive | 
O=c1c2ccc(Cl)cc2ccn1-c1ccccc1 [G2-53, 6-chloro-2-phenylisoquinolin-1(2H)-one] | Inactive | 
Cn1ccc2cc(-c3ccncc3)ccc2c1=O [G2-42, 2-methyl-6-(pyridin-4-yl)isoquinolin-1(2H)-one] | Active | 
CNC(=O)c1ccc(Cl)cc1OC [G2-55, 4-chloro-2-methoxy-N-methylbenzamide] | Inactive | 
Cn1c(=O)ccc2ccc(Cl)cc21 [G2-54, 7-chloro-1-methylquinolin-2(1H)-one] | Active (Highly Active) | 
Cn1ccc2cc(C#N)ccc2c1=O [G2-31, 2-methyl-1-oxo-1,2-dihydroisoquinoline-6-carbonitrile] | Inactive | 
O=c1ccc2ccc(F)cc2[nH]1 [G2-124, 7-fluoroquinolin-2(1H)-one] | Active | pIC50 [1]: 5.00 to 6.00
